Data from PMC5095144, “Purification and characterization of an extracellular β‐glucosidase from Sporothrix schenckii” (FEBS Open Bio, 2016).

Key:
[1] = test system: T1, extracellular β-glucosidase; experiment: p-nitrophenol release at […] nm, Michaelis-Menten nonlinear regression; assay type: biochemical, Sporothrix schenckii; conditions: 100 mM sodium citrate pH 5, 45 °C; substrate 0–17.5 mM (below the fitted Km)
T1 construct: gene beta-D-glucoside glucohydrolase; native, secreted, purified from culture filtrate of cellulose-grown mycelial form

[2] = molecular target: extracellular β-glucosidase from Sporothrix schenckii (Sporothrix schenckii); experiment: SEC; Sephacryl S200-HR column (1 x 119 cm), 50 mM phosphate buffer pH 7, 4 °C, calibrated with standard proteins; native mass compared with the subunit mass from 7% SDS/PAGE
[3] = molecular target: extracellular β-glucosidase from Sporothrix schenckii (Sporothrix schenckii); experiment: zymogram after SDS/PAGE (semidenaturing) and native PAGE; 7% gels run at 4 °C, sample incubated 30 min at 37 °C in sample buffer; activity shown with 4-MUG; CFCF after 3 days on cellulose
[4] = test system: T1, extracellular β-glucosidase; experiment: fluorometric 4-MU release, Michaelis-Menten nonlinear regression; assay type: biochemical, Sporothrix schenckii; conditions: 100 mM sodium citrate pH 5, 45 °C; substrate 0–15 μM

Molecule: O=[N+]([O-])c1ccc(O[C@@H]2O[C@H](CO)[C@@H](O)[C@H](O)[C@H]2O)cc1 [p-nitrophenyl β-D-glucopyranoside]
- Km [1]: 44.1 ± 6.11 mM

Molecule: extracellular β-glucosidase from Sporothrix schenckii (enzyme)
- stoichiometry N [2]: 2
- stoichiometry N [3]: 2

Molecule: Cc1cc(=O)oc2cc(O[C@@H]3O[C@H](CO)[C@@H](O)[C@H](O)[C@H]3O)ccc12 [4-methylumbelliferyl β-D-glucopyranoside]
- Km [4]: 0.012 ± 0.001 mM
